What was measured:
Conditions in all cases: Table VIa; host plants sprayed; solution of 400 ppm and dilutions
[1] = tested on: Venturis inaequalis; experiment: In vivo fungicidal activity, Apple Scab (AS)
[2] = tested on: Plasmopara viticola; experiment: In vivo fungicidal activity, Grape Downy Mildew (GDM); also: ranges in brackets are in %
[3] = tested on: Botrytis cinerea; experiment: In vivo fungicidal activity, Pepper Botrytis (PB); also: ranges in brackets are in %
[4] = tested on: Pyricularia oryzae; assay type: in vivo
[5] = tested on: Cercospora beticola; experiment: In vivo fungicidal activity, Sugar Beet Cercospora (SBC); also: ranges in brackets are in %
[6] = tested on: Alternaria solani; experiment: In vivo fungicidal activity, Tomato Early Blight (TEB); also: ranges in brackets are in %
[7] = tested on: Erysiphe graminis f. sp. tritici; experiment: In vivo fungicidal activity, Wheat Powdery Mildew (WPM)
[8] = tested on: Septoria nodorum; experiment: In vivo fungicidal activity, Wheat Blotch (WSN)
Experimental: Test compounds are dissolved in acetone and diluted with deionized water containing about 0.05% TWEEN 20®, a polyoxyethylene sorbitan monolaurate surfactant manufactured by Atlas Chemical Industries, to give a concentration of 400 ppm. Subsequent dilutions are made with an 0.05% aqueous solution of TWEEN 20®.
Host plants are sprayed with test solution, dried and inoculated with fungi. When disease symptom development is optimal, the plants are rated for disease control according to the rating scale shown below. Each test contains inoculated treated plants, inoculated untreated plants and a reference standard. When more than one test is run, the data are averaged.

SMILES	disease control rating AS (Apple Scab) [1]	disease control rating GDM [2]	disease control rating PB [3]	disease control rating RB [4]	disease control rating SBC [5]	disease control rating TEB [6]	disease control rating WPM [7]	disease control rating WSN [8]
CC(C)(C)C1CCC2(CC1)CC(CCNC1CCCCCC1)CO2 (stereo not drawn) [Compound 195]	6 (75-89)	5 (60-74)	5 (60-74)	7 (90-95)	7 (90-95)	0 (0)	7 (90-95)	7 (90-95)
CCCCN(CCCC)CCC1COC2(CCC(C(C)(C)C)CC2)C1 (stereo not drawn) [Compound 196]	5 (60-74)	5 (60-74)	5 (60-74)	6 (75-89)	8 (96-99)	0 (0)	9 (100)	7 (90-95)
CCCCC(CC)NCCC1COC2(CCC(C(C)(C)C)CC2)C1 (stereo not drawn) [Compound 197]	5 (60-74)	7 (90-95)	8 (96-99)	0 (0)	7 (90-95)	0 (0)	8 (96-99)	7 (90-95)
CC(C)(C)C1CCC2(CC1)CC(CCNC1CCC3CCCCC3C1)CO2 (stereo not drawn) [Compound 198]	6 (75-89)	6 (75-89)	7 (90-95)	0 (0)	8 (96-99)	6 (75-89)	8 (96-99)	8 (96-99)
CN(CCC1COC2(CCC(C(C)(C)C)CC2)C1)C1CCCCC1 (stereo not drawn) [Compound 199]	6 (75-89)	5 (60-74)	7 (90-95)	0 (0)	3 (30-44)	4 (45-59)	8 (96-99)	7 (90-95)
CCN(CCC1COC2(CCC(C(C)(C)C)CC2)C1)C1CCCCC1 (stereo not drawn) [Compound 200]	7 (90-95)	5 (60-74)	8 (96-99)	0 (0)	8 (96-99)	0 (0)	8 (96-99)	8 (96-99)
CCCCCC(C)N(C)CCC1COC2(CCC(C(C)(C)C)CC2)C1 (stereo not drawn) [Compound 201]	6 (75-89)	7 (90-95)	3 (30-44)	0 (0)	6 (75-89)	0 (0)	8 (96-99)	5 (60-74)
CCCCCC(C)N(CC)CCC1COC2(CCC(C(C)(C)C)CC2)C1 (stereo not drawn) [Compound 202]	6 (75-89)	5 (60-74)	7 (90-95)	0 (0)	7 (90-95)	0 (0)	8 (96-99)	5 (60-74)
CC(C)(C)C1CCC2(CC1)CC(CCN1CCCCC1)CO2 (stereo not drawn) [Compound 203]	0 (0)	0 (0)	8 (96-99)	0 (0)	8 (96-99)	6 (75-89)	8 (96-99)	6 (75-89)
